Molecules are shown by their SMILES. Bridge positions count the residues as written; N and C are the ends. Square brackets hold non-standard residues; d marks the D form. Peptide text beside a SMILES is read from it. I, II: the chains in the order shown. * marks the point of attachment. Palmitoyl = CCCCCCCCCCCCCCCC(=O)*; PEG3 = NCCOCCOCCOCCC(=O)O; Dap = NC[C@H](N)C(=O)O

This assay addresses T1, human MuSK (Homo sapiens, UniProt O15146).
T1 construct: fused downstream of the extracellular portion (amino acids 1-493) of human MuSK cDNA clone; made in house; host or cells: Expi293 cells; unpurified culture supernatant used
T1 sequence (O15146 24-493) 1: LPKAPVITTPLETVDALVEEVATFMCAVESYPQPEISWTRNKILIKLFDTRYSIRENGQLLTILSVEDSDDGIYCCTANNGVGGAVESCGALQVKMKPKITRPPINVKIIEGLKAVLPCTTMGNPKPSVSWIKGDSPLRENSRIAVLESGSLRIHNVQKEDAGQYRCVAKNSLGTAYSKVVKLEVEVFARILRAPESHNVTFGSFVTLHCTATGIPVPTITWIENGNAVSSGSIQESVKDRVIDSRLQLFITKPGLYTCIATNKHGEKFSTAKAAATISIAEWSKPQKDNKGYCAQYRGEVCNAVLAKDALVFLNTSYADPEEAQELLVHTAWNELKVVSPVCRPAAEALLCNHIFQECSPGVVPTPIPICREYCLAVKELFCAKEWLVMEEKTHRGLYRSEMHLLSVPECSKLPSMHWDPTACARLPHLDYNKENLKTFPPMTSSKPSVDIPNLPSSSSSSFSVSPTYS
T1 sequence (O15146 24-493) 2: T1 sequence (O15146 24-493) 1
The assay is described as follows: MuSK dimerization activity (NanoBiT assay). The class given is biochemical. On the procedure: Expi293 cells were purchased from Thermo Fisher Scientific Inc. and used. For subculture, DMEM (high glucose, GlutaMAX supplement, pyruvate; GIBCO) supplemented with 10% fetal bovine serum (FBS; GIBCO) was used. For passage, after the culture medium was removed by suction, adherent cells were washed with phosphate buffered saline (PBS(-)), and HBSS (GIBCO) containing no Mg^2+ and Ca^2+ and containing 0.25% trypsin and 1 mM ethylenediaminetetraacetic acid was added, and the mixture was reacted in a CO2 incubator (37°C, 5% CO2) for 5 minutes. The detached cells were collected and then centrifuged at 1000 rpm at 4°C for 5 minutes (Sorvall X4R Pro, Thermo Fisher Scientific Inc.). After the supernatant was removed by suction, the cells were suspended in fresh culture medium and expanded in a new culture vessel.
In the steady state, their affinity is estimated to be about 190 µM, and the amount of luminescence is very small even in the presence of substrate. […] A technique for evaluating interactions between two arbitrary proteins by utilizing this property is the NanoBiT assay. […]
The effect of the U-bodies and their complexes on clustering of acetylcholine receptors was evaluated. […]

As to `CCCCCCCCCCCCCCCC(=O)NCCCC[C@H](NC(=O)[C@H](CNC(=O)CCOCCOCCOCCNC(=O)CNC(=O)[C@@H]1CSCC(=O)N[C@H](Cc2ccc(O)cc2)C(=O)N2CCC[C@H]2C(=O)N[C@@H](CO)C(=O)N[C@@H](Cc2ccc(O)cc2)C(=O)N[C@@H](Cc2c[nH]cn2)C(=O)N[C@@H]([C@@H](C)O)C(=O)N[C@@H](CC(N)=O)C(=O)N[C@@H](C(C)C)C(=O)N[C@@H](C(C)C)C(=O)N[C@@H](C)C(=O)N[C@@H](CO)C(=O)N[C@@H](CC(C)C)C(=O)N[C@@H](CCCCN)C(=O)N[C@@H](CCCNC(=N)N)C(=O)N1)NC(=O)CCOCCOCCOCCNC(=O)CNC(=O)[C@@H]1CSCC(=O)N[C@H](Cc2ccc(O)cc2)C(=O)N2CCC[C@H]2C(=O)N[C@@H](CO)C(=O)N[C@@H](Cc2ccc(O)cc2)C(=O)N[C@@H](Cc2c[nH]cn2)C(=O)N[C@@H]([C@@H](C)O)C(=O)N[C@@H](CC(N)=O)C(=O)N[C@@H](C(C)C)C(=O)N[C@@H](C(C)C)C(=O)N[C@@H](C)C(=O)N[C@@H](CO)C(=O)N[C@@H](CC(C)C)C(=O)N[C@@H](CCCCN)C(=O)N[C@@H](CCCNC(=N)N)C(=O)N1)C(N)=O` [MuSK7-pal] (I: {CH2CO}-[dY]PSYHTNVVASLKRCG[PEG3][Dap]K(Palmitoyl)-NH2 / II: {CH2CO}-[dY]PSYHTNVVASLKRCG[PEG3]; amide I:18-II:C; thioether I:N-I:15, II:N-II:15), the MuSK dimerization entry (compound concentration exceeded 40 nM) was “conversely tended to decrease”. Moreover, the “luminescence (MuSK dimerization)” value (concentration range from the pM order to 40 nM) is recorded as “increased in a dose-dependent manner”.

Source of the values: patent EP4722228A1, “NEW COMPOUND TARGETING MUSK AND USE THEREOF” (The University of Tokyo, priority 2023, dated 2024).
